Laboratory results from article PMC11891622 (Angewandte Chemie (International Ed. in English), 2025).
“Also recorded” adds a separate entry of the source. Where two headings read alike, the source gives them in different places.

What was measured:
[1] = target: SARS-CoV-2 Nucleocapsid protein N-terminal globular domain NTD (44–180) (Severe acute respiratory syndrome coronavirus 2, UniProt P0DTC9); assay type: binding
[2] = system: SARS-CoV-2 Nucleocapsid protein NTR (1–248) (NTD plus two flanking IDRs); assay type: binding; settings: for peaks of poly-L region (216–225): 0.25 equiv. of the chimaera

Ac‐Glu‐Gly‐Glu‐Gly‐Glu‐Gly‐Gly‐Glu‐gggg‐Glu‐Gly‐Gly‐Glu‐Gly‐Glu‐(β‐Ala)‐Glu [P-PNA]
CSP magnitude, chimaera versus peptide P [1]: CSP for the same residues are more pronounced in the case of the chimaera adduct; also recorded: chemical shift perturbation values are clearly higher for the chimeric molecule
affinity compared with gRNA fragments / oligonucleotides [1]: despite larger, is not significantly distant from those reported in the literature for studies conducted with gRNA fragments; also recorded: lower than that of some oligonucleotides of similar length
affinity compared with the peptide / chimaera counterpart [1]: superior affinity over the pure peptide precursor; also recorded: higher affinity for an RNA‐binding protein, such as the nucleocapsid protein of SARS‐CoV‐2, compared to a pure designed peptide
CSP pattern: location of most affected residues ([1]; pH 6.5): predominantly cluster within three main regions, as reported in Figure 2B and 2C, very similar to those identified when interacting with RNA
exchange regime on the NMR time scale ([1]; pH 6.5): an interaction taking place in a fast exchange regime on the NMR time scale
peaks of poly-L region (216–225) ([2]; 70 µM NTR1-248, pH 6.5, 298 K, listed as P‐PNA): several cross peaks disappearing at only 0.25 equiv. of ligand added
peaks of poly-L region (216–225) ([2]; 70 µM NTR1-248, pH 6.5, 298 K, listed as chimaera): disappeared immediately after the addition of only 0.25 equiv. of the chimaera
major CSPs on the NTD (44–180) region within NTR (1–248) ([2]; CSP at 1 equiv. P-PNA, 70 µM NTR1-248, pH 6.5, 298 K): identified once again in the basic finger of NTD (44–180)
similarity of affected regions to those with RNA fragments ([2]; NTR (1–248), comparison with ref [22], [24]): the regions that are most affected by the interaction are similar to those identified when studying the interaction of NTR (1–248) with RNA fragments
most perturbed residues, IDR2 (181–248) SR-rich region (177–203) ([2]; pH 6.5): the SR‐rich region, which shows the highest CSP values; also recorded: The most perturbed residues are found in the SR‐rich region (177–203
intensity of NTD (44–180) peaks within NTR (1–248) ([2]; upon addition of the chimaera, 70 µM NTR1-248, pH 6.5, 298 K): several peaks of NTD (44–180) decrease in intensity or disappear completely
